From patent publication US10093623B2, “Cyclic amides as MetAP-2 inhibitors” (MERCK PATENT GmbH, priority 2012, dated 2018)

Each compound was assayed against MetAP-2 (Homo sapiens, UniProt P50579) (assay: MetAP-2 activity measurement (coupled enzymatic reactions, Met-Arg-Ser substrate, dianisidine detection at 450 nm)). Settings: Inhibition of MetAP-2; read-out: IC50 enzyme.
Assay type: biochemical
How it was run: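 Rate read from the linear part of the 450 nm absorbance trace. Dianisidine oxidation by peroxidase reports H2O2 made when amino acid oxidase acts on methionine cleaved from MAS tripeptide, one mol dye per mol Met; extinction coefficient gives molar activity.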

Chain of MetAP-2 (P50579 whole entry, species assumed): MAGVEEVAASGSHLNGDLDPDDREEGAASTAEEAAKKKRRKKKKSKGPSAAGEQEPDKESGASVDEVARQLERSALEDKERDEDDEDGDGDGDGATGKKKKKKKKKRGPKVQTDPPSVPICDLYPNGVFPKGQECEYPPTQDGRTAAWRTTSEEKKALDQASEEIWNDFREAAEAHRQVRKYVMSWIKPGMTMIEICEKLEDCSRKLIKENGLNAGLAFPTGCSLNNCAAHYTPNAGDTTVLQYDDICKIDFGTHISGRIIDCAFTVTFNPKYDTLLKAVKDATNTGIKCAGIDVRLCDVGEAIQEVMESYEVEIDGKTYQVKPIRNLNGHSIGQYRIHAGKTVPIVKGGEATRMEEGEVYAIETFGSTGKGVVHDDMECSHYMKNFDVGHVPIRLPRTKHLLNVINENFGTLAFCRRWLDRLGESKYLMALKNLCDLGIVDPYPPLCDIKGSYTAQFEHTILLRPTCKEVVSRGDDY

| Compound | IC50 |
| --- | --- |
| O=C1CCc2cc(N3CCC(O)(C(=O)NCCc4cc(F)cc(F)c4)C3=O)ccc2N1 (stereo not drawn) [A199, N-[2-(3,5-Difluorophenyl)ethyl]-3-hydroxy-2-oxo-1-(2-oxo-1,2,3,4-tetrahydroquinolin-6-yl)-pyrrolidine-3-carboxamide] | 0.01 to 1 µM |
| NC(=O)c1cccc(N2CCC(O)(C(=O)NCCc3cc(F)cc(F)c3)C2=O)c1 (stereo not drawn) [A201, N-[2-(3,5-Difluorophenyl)ethyl]-1-(3-carbamoylphenyl)-3-hydroxy-2-oxopyrrolidine-3-carboxamide] | 0.01 to 1 µM |
| CCOC(=O)C1CCCC(N2CCC(O)(C(=O)NCc3cc(F)cc(Cl)c3)C2=O)C1 (stereo not drawn) [A202, Ethyl 3-[3-(3-chloro-5-fluorobenzylcarbamoyl)-3-hydroxy-2-oxopyrrolidin-1-yl]-cyclohexanecarboxylate] | 1 to 10 µM |
| O=C(O)CN1CCC(O)(C(=O)NCc2cc(F)cc(Cl)c2)C1=O (stereo not drawn) [A203, [3-(3-Chloro-5-fluorobenzylcarbamoyl)-3-hydroxy-2-oxopyrrolidin-1-yl]-acetic acid] | > 10 µM |
| NC(=O)c1cc(N2CCC(O)(C(=O)NCc3cc(F)cc(Cl)c3)C2=O)cc(C(F)(F)F)c1 (stereo not drawn) [A204, N-(3-Chloro-5-fluorobenzyl)-1-(3-carbamoyl-5-trifluoromethyl-phenyl)-3-hydroxy-2-oxo-pyrrolidine-3-carboxamide] | 1 to 10 µM |
| CCOC(=O)c1cc2cc(N3CCC(O)(C(=O)NCc4cc(F)cc(Cl)c4)C3=O)ccc2[nH]1 (stereo not drawn) [A205, Ethyl 5-[3-(3-chloro-5-fluorobenzylcarbamoyl)-3-hydroxy-2-oxopyrrolidin-1-yl]-1H-indol-2-carboxylate] | 0.01 to 1 µM |
| O=C(NCc1cccc(F)c1Cl)C1(O)CCN(c2ccc3[nH]ccc3c2)C1=O (stereo not drawn) [A206, N-(2-Chloro-3-fluorobenzyl)-3-hydroxy-1-(1H-indol-5-yl)-2-oxo-pyrrolidine-3-carboxamide] | 0.01 to 1 µM |
| O=C(NCCc1cc(F)cc(F)c1)C1(O)CCN(c2ccc3[nH]ccc3c2)C1=O (stereo not drawn) [A207, N-[2-(3,5-Difluorophenyl)ethyl]-3-hydroxy-1-(1H-indol-5-yl)-2-oxopyrrolidine-3-carboxamide] | 0.01 to 1 µM |
| CNC(=O)CN1CCC(O)(C(=O)NCc2cc(F)cc(Cl)c2)C1=O (stereo not drawn) [A208, N-(3-Chloro-5-fluorobenzyl)-3-hydroxy-1-methylcarbamoyl-methyl-2-oxopyrrolidine-3-carboxamide] | 1 to 10 µM |
| O=C(NCCc1ccccc1F)C1(O)CCN(c2ccc3[nH]ccc3c2)C1=O (stereo not drawn) [A210, N-[2-(2-Fluorophenyl)ethyl]-3-hydroxy-1-(1H-indol-5-yl)-2-oxo-pyrrolidine-3-carboxamide] | 0.01 to 1 µM |
| NC(=O)c1cc2cc(N3CCC(O)(C(=O)NCc4cc(F)cc(Cl)c4)C3=O)ccc2[nH]1 (stereo not drawn) [A211, 5-[3-(3-Chloro-5-fluorobenzylcarbamoyl)-3-hydroxy-2-oxopyrrolidin-1-yl]-1H-indole-2-carboxamide] | 0.01 to 1 µM |
| O=C(NCCc1cccc(F)c1)C1(O)CCN(c2ccc3[nH]ccc3c2)C1=O (stereo not drawn) [A212, N-[2-(3-Fluorophenyl)ethyl]-3-hydroxy-1-(1H-indol-5-yl)-2-oxo-pyrrolidine-3-carboxamide] | 0.01 to 1 µM |
| CC(C)(C)OC(=O)N1CC(CN2CCC(O)(C(=O)NCc3cc(F)cc(Cl)c3)C2=O)C1 (stereo not drawn) [A213, tert-Butyl 3-[3-(3-chloro-5-fluorobenzylcarbamoyl)-3-hydroxy-2-oxopyrrolidin-1-yl-methyl]-azetidine-1-carboxylate] | 1 to 10 µM |
| O=C1CCc2cc(N3CCC(O)(C(=O)NCc4cc(F)cc(Cl)c4)C3=O)cnc2N1 (stereo not drawn) [A214, N-(3-Chloro-5-fluorobenzyl)-3-hydroxy-2-oxo-1-(7-oxo-5,6,7,8-tetrahydro-1,8-naphthyridin-3-yl)pyrrolidine-3-carboxamide] | 0.01 to 1 µM |
| NC(=O)c1cncc(N2CCC(O)(C(=O)NCc3cc(F)cc(Cl)c3)C2=O)c1 (stereo not drawn) [A216, 5-[3-(3-Chloro-5-fluorobenzylcarbamoyl)-3-hydroxy-2-oxopyrrolidin-1-yl]-nicotinamide] | 0.01 to 1 µM |
| N#Cc1cc2cc(N3CCC(O)(C(=O)NCc4cc(F)cc(Cl)c4)C3=O)ccc2[nH]1 (stereo not drawn) [A217, N-(3-Chloro-5-fluorobenzyl)-1-(2-cyano-1H-indol-5-yl)-3-hydroxy-2-oxopyrrolidine-3-carboxamide] | 0.01 to 1 µM |
| O=C(NCc1cc(F)cc(Cl)c1)C1(O)CCN(CC2CNC2)C1=O (stereo not drawn) [A218, N-(3-Chloro-5-fluorobenzyl)-1-azetidin-3-ylmethyl-3-hydroxy-2-oxopyrrolidine-3-carboxamide] | > 10 µM |
| O=C(NCc1cc(F)cc(Cl)c1)C1(O)CCN(CCc2c[nH]c3ccc(F)cc23)C1=O (stereo not drawn) [A219, N-(3-Chloro-5-fluorobenzyl)-1-[2-(5-fluoro-1H-indol-3-yl)ethyl]-3-hydroxy-2-oxopyrrolidine-3-carboxamide] | 0.01 to 1 µM |

| Compound | IC50 |
| --- | --- |
| O=C(NCc1cc(F)cc(Cl)c1)C1(O)CCN(CC2CCOCC2)C1=O (stereo not drawn) [A220, N-(3-Chloro-5-fluorobenzyl)-3-hydroxy-2-oxo-1-(tetrahydro-pyran-4-ylmethyl)pyrrolidine-3-carboxamide] | 1 to 10 µM |
| O=C1CCc2cc(N3CC[C@](O)(C(=O)NCCc4cc(F)cc(F)c4)C3=O)ccc2N1 [A221, N-[2-(3,5-Difluorophenyl)ethyl]-(S)-3-hydroxy-2-oxo-1-(2-oxo-1,2,3,4-tetrahydroquinolin-6-yl)-pyrrolidine-3-carboxamide] | 0.01 to 1 µM |
| N#Cc1c[nH]c2ccc(N3CC[C@](O)(C(=O)NCc4cc(F)cc(Cl)c4)C3=O)cc12 [A222, N-(3-Chloro-5-fluorobenzyl)-(S)-1-(3-cyano-1H-indol-5-yl)-3-hydroxy-2-oxopyrrolidine-3-carboxamide] | 0.01 to 1 µM |
| O=C1CCc2cc(N3CC[C@@](O)(C(=O)NCCc4cc(F)cc(F)c4)C3=O)ccc2N1 [A223, N-[2-(3,5-Difluorophenyl)ethyl]-(R)-3-hydroxy-2-oxo-1-(2-oxo-1,2,3,4-tetrahydroquinolin-6-yl)-pyrrolidine-3-carboxamide] | > 10 µM |
| N#Cc1c[nH]c2ccc(N3CC[C@@](O)(C(=O)NCc4cc(F)cc(Cl)c4)C3=O)cc12 [A224, N-(3-Chloro-5-fluorobenzyl)-(R)-1-(3-cyano-1H-indol-5-yl)-3-hydroxy-2-oxopyrrolidine-3-carboxamide] | 1 to 10 µM |
| O=C(NCc1cc(F)cc(Cl)c1)C1(O)CCN(C[C@H]2CCCO2)C1=O (stereo partly drawn) [A225, N-(3-Chloro-5-fluorobenzyl)-3-hydroxy-2-oxo-1-[(R)-1-(tetrahydrofuran-2-yl)methyl]-pyrrolidine-3-carboxamide] | 1 to 10 µM |
| O=C(NCc1cc(F)cc(Cl)c1)C1(O)CCN(C[C@H]2CC[C@@H](C(=O)O)CC2)C1=O (stereo partly drawn) [A226, 4-[3-(3-Chloro-5-fluorobenzyl-carbamoyl)-3-hydroxy-2-oxo-pyrrolidin-1-ylmethyl]cyclo-hexanecarboxylic acid] | 1 to 10 µM |
| O=C(NCc1cc(F)cc(Cl)c1)C1(O)CCN(C[C@H]2CC[C@H](C(=O)O)CC2)C1=O (stereo partly drawn) [A227, 4-[3-(3-Chloro-5-fluorobenzyl-carbamoyl)-3-hydroxy-2-oxo-pyrrolidin-1-ylmethyl]cyclo-hexanecarboxylic acid] | 1 to 10 µM |
| CC(C)(C)OC(=O)N1C[C@@H]2[C@H](C1)[C@H]2N1CCC(O)(C(=O)NCc2cc(F)cc(Cl)c2)C1=O (stereo partly drawn) [A228, tert-Butyl (1S,5R,6S)-6-[3-(3-chloro-5-fluorobenzyl-carbamoyl)-3-hydroxy-2-oxo-pyrrolidin-1-yl]-3-azabicyclo-[3.1.0]hexane-3-carboxylate] | 1 to 10 µM |
| O=C(NCc1cc(F)cc(Cl)c1)C1(O)CCN([C@H]2[C@@H]3CNC[C@@H]32)C1=O (stereo partly drawn) [A229, N-(3-Chloro-5-fluorobenzyl)-1-(1S,5R,6S)-3-azabicyclo-[3.1.0]hex-6-yl-3-hydroxy-2-oxo-pyrrolidine-3-carboxamide] | > 10 µM |
| CCS(=O)(=O)N1C[C@@H]2[C@H](C1)[C@H]2N1CCC(O)(C(=O)NCc2cc(F)cc(Cl)c2)C1=O (stereo partly drawn) [A230, N-(3-Chloro-5-fluorobenzyl)-1-((1S,5R,6S)-3-ethanesulfonyl-3-azabicyclo[3.1.0]hex-6-yl)-3-hydroxy-2-oxopyrrolidine-3-carboxamide] | 1 to 10 µM |
| CC(=O)N1C[C@@H]2[C@H](C1)[C@H]2N1CCC(O)(C(=O)NCc2cc(F)cc(Cl)c2)C1=O (stereo partly drawn) [A231, N-(3-Chloro-5-fluorobenzyl)-1-((1S,5R,6S)-3-acetyl-3-aza-bicyclo[3.1.0]hex-6-yl)-3-hydroxy-2-oxopyrrolidine-3-carboxamide] | 1 to 10 µM |
| Cn1c(CN2CCC(O)(C(=O)NCc3cc(F)cc(Cl)c3)C2=O)nc2ccccc21 (stereo not drawn) [A232, N-(3-Chloro-5-fluorobenzyl)-3-hydroxy-1-(1-methyl-1H-benzimidazol-2-ylmethyl)-2-oxo-pyrrolidine-3-carboxamide] | 1 to 10 µM |
| O=C(NCc1cc(F)cc(Cl)c1)C1(O)CCN([C@H]2CCNC2)C1=O (stereo partly drawn) [A233, N-(3-Chloro-5-fluorobenzyl)-(S)-3-hydroxy-2-oxo-[1,3′]bipyrrolidinyl-3-carboxamide] | > 10 µM |
| O=C1CCc2cc(N3CC[C@](O)(C(=O)NCc4cc(F)c(F)cc4Cl)C3=O)ccc2N1 [A234, N-(2-Chloro-4,5-difluorobenzyl)-(S)-3-hydroxy-2-oxo-1-(2-oxo-1,2,3,4-tetrahydroquinolin-6-yl)-pyrrolidine-3-carboxamide] | 0.01 to 1 µM |
| O=C1CCc2cc(N3CC[C@](O)(C(=O)NCc4cc(Cl)c(F)cc4F)C3=O)ccc2N1 [A235, N-(5-Chloro-2,4-difluorobenzyl)-(S)-3-hydroxy-2-oxo-1-(2-oxo-1,2,3,4-tetrahydroquinolin-6-yl)-pyrrolidine-3-carboxamide] | 0.01 to 1 µM |
| O=C1CCc2cc(N3CC[C@](O)(C(=O)NCc4c(F)cc(F)cc4F)C3=O)ccc2N1 [A236, N-(2,4,6-Trifluorobenzyl)-(S)-3-hydroxy-2-oxo-1-(2-oxo-1,2,3,4-tetrahydroquinolin-6-yl)-pyrrolidine-3-carboxamide] | 0.01 to 1 µM |
| O=C(NCc1cc(F)cc(Cl)c1)C1(O)CCN(CCc2ccc(F)cc2F)C1=O (stereo not drawn) [A237, N-(3-Chloro-5-fluorobenzyl)-1-[2-(2,4-Difluorophenyl)ethyl]-3-hydroxy-2-oxopyrrolidine-3-carboxamide] | 1 to 10 µM |
